The target in experiment [1] is T1, Muscarinic acetylcholine receptor M3 (Homo sapiens, UniProt P20309).
Target sequence in this assay (P20309 whole entry): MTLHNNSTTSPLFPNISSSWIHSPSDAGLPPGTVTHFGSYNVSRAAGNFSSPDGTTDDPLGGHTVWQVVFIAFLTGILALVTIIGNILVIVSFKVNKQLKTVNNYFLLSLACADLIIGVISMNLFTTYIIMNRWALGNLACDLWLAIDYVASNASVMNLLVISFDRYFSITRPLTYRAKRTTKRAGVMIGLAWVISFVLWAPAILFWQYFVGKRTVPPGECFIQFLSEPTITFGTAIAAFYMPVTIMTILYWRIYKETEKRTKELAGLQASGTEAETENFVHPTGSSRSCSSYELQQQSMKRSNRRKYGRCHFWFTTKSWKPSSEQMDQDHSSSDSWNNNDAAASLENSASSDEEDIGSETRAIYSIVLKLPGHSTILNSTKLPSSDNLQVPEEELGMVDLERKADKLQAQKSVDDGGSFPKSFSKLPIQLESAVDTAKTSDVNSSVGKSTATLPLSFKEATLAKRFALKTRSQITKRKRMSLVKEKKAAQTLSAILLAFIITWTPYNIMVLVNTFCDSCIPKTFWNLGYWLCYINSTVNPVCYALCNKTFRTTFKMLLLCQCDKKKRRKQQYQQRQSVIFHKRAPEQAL
Description: Partial agonist activity at C-terminal NanoLuc tagged human muscarinic M3 receptor expressed in HEK293T cells using furimazine as substrate assessed as receptor activation preincubated with substrate for 1 min followed by compound addition and measured for 6 mins 27 sec by NanoBRET assay
Experiment [2] concerns the target T2, Muscarinic acetylcholine receptor M5 (Homo sapiens) (UniProt P08912).
T2 sequence (whole entry): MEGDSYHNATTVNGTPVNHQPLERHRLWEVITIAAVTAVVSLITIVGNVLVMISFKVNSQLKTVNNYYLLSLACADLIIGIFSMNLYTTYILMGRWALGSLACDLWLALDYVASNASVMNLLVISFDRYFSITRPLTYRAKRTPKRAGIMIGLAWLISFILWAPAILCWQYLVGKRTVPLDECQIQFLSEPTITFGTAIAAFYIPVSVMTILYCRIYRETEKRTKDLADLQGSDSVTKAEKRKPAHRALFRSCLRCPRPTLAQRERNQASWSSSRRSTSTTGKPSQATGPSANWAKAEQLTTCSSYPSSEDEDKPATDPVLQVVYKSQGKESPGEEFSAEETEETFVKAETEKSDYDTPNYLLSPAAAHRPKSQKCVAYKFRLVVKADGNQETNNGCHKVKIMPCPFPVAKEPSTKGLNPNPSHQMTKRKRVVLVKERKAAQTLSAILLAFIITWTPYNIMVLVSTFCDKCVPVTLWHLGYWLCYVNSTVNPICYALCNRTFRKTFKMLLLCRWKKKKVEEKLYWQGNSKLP
As to the kind of experiment: Partial agonist activity at N-terminal FLAG tagged/C-terminal NanoLuc tagged human muscarinic M5 receptor expressed in HEK293T cells using furimazine as substrate assessed as receptor activation at 100 uM preincubated with substrate for 1 min followed by compound addition and measured for 6 mins 27 sec by NanoBRET assay. The experiment is classed as cell-based. Conditions: time 387.0 sec.

Experiment [3] has as its target T3, Muscarinic acetylcholine receptor M4 (Homo sapiens) (UniProt P08173).
T3 sequence (whole entry): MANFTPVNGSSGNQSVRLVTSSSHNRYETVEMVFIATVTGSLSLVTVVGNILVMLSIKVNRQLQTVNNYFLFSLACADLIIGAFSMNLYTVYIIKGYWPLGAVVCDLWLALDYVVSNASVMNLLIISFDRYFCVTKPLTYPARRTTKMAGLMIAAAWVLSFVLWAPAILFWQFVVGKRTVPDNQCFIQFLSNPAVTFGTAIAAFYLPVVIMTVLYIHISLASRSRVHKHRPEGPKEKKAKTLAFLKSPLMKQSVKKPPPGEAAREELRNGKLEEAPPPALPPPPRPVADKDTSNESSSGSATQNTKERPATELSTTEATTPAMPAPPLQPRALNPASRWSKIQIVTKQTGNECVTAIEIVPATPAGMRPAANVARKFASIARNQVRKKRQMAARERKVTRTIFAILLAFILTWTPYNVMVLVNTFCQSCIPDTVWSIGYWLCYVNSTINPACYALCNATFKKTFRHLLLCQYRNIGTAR
Briefly: Partial agonist activity at N-terminal FLAG tagged/C-terminal NanoLuc tagged human muscarinic M4 receptor expressed in HEK293T cells using furimazine as substrate assessed as receptor activation at 100 uM preincubated with substrate for 1 min followed by compound addition and measured for 6 mins 27 sec by NanoBRET assay. Conditions: time 387.0 sec. The experiment is classed as cell-based. In general terms: BRET reads energy transfer from a luciferase to a nearby fluorophore.

In experiment [4] the target is T4, Muscarinic acetylcholine receptor M1 (Homo sapiens) (UniProt P11229).
T4 sequence (whole entry): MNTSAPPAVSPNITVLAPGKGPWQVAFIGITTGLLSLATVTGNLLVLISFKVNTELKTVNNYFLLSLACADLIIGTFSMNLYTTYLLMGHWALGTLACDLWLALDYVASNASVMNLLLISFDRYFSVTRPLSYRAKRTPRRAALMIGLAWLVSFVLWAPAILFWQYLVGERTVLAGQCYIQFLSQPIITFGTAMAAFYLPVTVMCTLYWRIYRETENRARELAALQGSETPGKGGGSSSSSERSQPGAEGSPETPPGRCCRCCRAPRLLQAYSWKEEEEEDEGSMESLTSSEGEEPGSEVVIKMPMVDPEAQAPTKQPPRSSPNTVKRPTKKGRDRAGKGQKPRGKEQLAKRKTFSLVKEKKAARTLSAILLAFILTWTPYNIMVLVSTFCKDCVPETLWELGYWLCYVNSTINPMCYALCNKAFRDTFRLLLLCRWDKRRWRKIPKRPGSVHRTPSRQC
As to the kind of experiment: Partial agonist activity at N-terminal FLAG tagged/C-terminal NanoLuc tagged human muscarinic M1 receptor expressed in HEK293T cells using furimazine as substrate assessed as receptor activation at 100 uM preincubated with substrate for 1 min followed by compound addition and measured for 6 mins 27 sec by NanoBRET assay. The experiment is classed as cell-based. Conditions: time 387.0 sec.

The target in experiment [5] is T1, Muscarinic acetylcholine receptor M3. As to the kind of experiment: Partial agonist activity at C-terminal NanoLuc tagged human muscarinic M3 receptor expressed in HEK293T cells using furimazine as substrate assessed as receptor activation at 100 uM preincubated with substrate for 1 min followed by compound addition and measured for 6 mins 27 sec by NanoBRET assay. The experiment is classed as cell-based. Conditions: time 387.0 sec.
Target sequence in this assay (P20309 whole entry, looked up): as the sequence (P20309 whole entry) above

In experiment [6] the target is T5, Muscarinic acetylcholine receptor M5 (Homo sapiens, UniProt P08912).
T5 sequence (P08912 whole entry): T2 sequence (whole entry)
Description: Partial agonist activity at N-terminal FLAG tagged/C-terminal NanoLuc tagged human muscarinic M5 receptor expressed in HEK293T cells using furimazine as substrate assessed as receptor activation preincubated with substrate for 1 min followed by compound addition and measured for 6 mins 27 sec by NanoBRET assay

Experiment [7] concerns the target T6, Muscarinic acetylcholine receptor M4 (Homo sapiens, UniProt P08173).
T6 sequence (P08173 whole entry): T3 sequence (whole entry)
Description: Partial agonist activity at N-terminal FLAG tagged/C-terminal NanoLuc tagged human muscarinic M4 receptor expressed in HEK293T cells using furimazine as substrate assessed as receptor activation preincubated with substrate for 1 min followed by compound addition and measured for 6 mins 27 sec by NanoBRET assay

Experiment [8] has as its target T7, Muscarinic acetylcholine receptor M2 (Homo sapiens, UniProt P08172).
T7 sequence (P08172 whole entry): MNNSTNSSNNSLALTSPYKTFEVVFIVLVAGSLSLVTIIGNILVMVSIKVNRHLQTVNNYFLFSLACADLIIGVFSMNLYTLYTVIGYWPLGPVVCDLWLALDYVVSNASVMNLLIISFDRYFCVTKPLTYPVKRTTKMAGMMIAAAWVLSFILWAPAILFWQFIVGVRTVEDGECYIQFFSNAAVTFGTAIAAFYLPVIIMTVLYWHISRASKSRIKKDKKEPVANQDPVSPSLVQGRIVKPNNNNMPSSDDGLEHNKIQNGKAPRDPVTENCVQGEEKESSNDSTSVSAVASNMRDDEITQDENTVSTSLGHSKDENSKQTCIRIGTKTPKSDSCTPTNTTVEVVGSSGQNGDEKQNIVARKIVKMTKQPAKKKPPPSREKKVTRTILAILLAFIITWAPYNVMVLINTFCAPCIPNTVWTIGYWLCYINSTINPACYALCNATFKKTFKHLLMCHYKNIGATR
Description: Partial agonist activity at C-terminal NanoLuc tagged human muscarinic M2 receptor expressed in HEK293T cells using furimazine as substrate assessed as receptor activation preincubated with substrate for 1 min followed by compound addition and measured for 6 mins 27 sec by NanoBRET assay

Experiment [9] deals with T8, Muscarinic acetylcholine receptor M1 (Homo sapiens, UniProt P11229).
T8 sequence (P11229 whole entry): T4 sequence (whole entry)
Description: Partial agonist activity at N-terminal FLAG tagged/C-terminal NanoLuc tagged human muscarinic M1 receptor expressed in HEK293T cells using furimazine as substrate assessed as receptor activation preincubated with substrate for 1 min followed by compound addition and measured for 6 mins 27 sec by NanoBRET assay

SMILES strings stand for the structures. The source made the active and inactive calls. No cut-off for these calls is given here.

The term EC50 denotes the concentration giving half of the maximal effect. Higher therefore signals weaker potency. In turn, `CC[C@H]1C(=O)OC[C@@H]1Cc1c[n+](CCCCCCCC[N+](C)(C)CC(C)(C)CN2C(=O)c3cccc4cccc(c34)C2=O)cn1C` gave a concentration for a half-maximal effect (EC50) in [1] of 31.6 µM. The outcome in experiment [2], in experiment [3] and in [4] was inactive.
For `Cn1cncc1C[C@H]1COC(=O)C1` [PILOSININE], the outcome in experiment [5], in [3] and in experiment [4] was inactive. Moreover, the EC50 in experiment [6] is 26.3 µM.
Turning to `CC(C)(CN1C(=O)c2cccc3cccc(c23)C1=O)C[N+](C)(C)CCCCCC[n+]1c[nH]c(CC2COC(=O)C2)c1` (configuration not stated), the result in [5] and in [2] was inactive. Besides, the figures for the EC50 in experiment [7], in experiment [8] and in [9] were 2.63 µM, 0.251 µM and 0.251 µM, respectively.
Turning to `O=C1C[C@@H](Cc2cnc[nH]2)CO1`, the 50% effective concentration (EC50) in [7] is 7.41 µM; in experiment [1] it was 20.9 µM; in [8], 1.38 µM; in experiment [9] it was 6.17 µM; in [6], 14.8 µM.
As to `CC[C@@H]1C(=O)OC[C@@H]1Cc1c[n+](CCCCCC[N+](C)(C)CC(C)(C)CN2C(=O)c3cccc4cccc(c34)C2=O)cn1C`, the EC50 in experiment [1] is 16.2 µM; in [8], 1.07 µM; in experiment [9], 34.7 µM.
Take `CC[C@@H]1C(=O)OC[C@@H]1Cc1c[n+](CCCCCCCC[N+](C)(C)CC(C)(C)CN2C(=O)c3cccc4cccc(c34)C2=O)cn1C`: the result in experiment [5], in experiment [2] and in experiment [4] was inactive. Further, the EC50 in [7] was 0.0955 µM.
With `CC[C@H]1C(=O)OC[C@@H]1Cc1c[n+](CCCCCC[N+](C)(C)CC(C)(C)CN2C(=O)c3cccc4cccc(c34)C2=O)cn1C`, the half-maximal effective concentration (EC50) in experiment [1] was 2.82 µM; in [8], 0.537 µM; in [9] it was 1.74 µM.
On to `Cn1c[n+](CCCCCC[N+](C)(C)CC(C)(C)CN2C(=O)c3cccc4cccc(c34)C2=O)cc1CC1COC(=O)C1` (configuration not stated), for which the result in experiment [5], in experiment [2] and in [4] was inactive. The compound also gave an EC50 in [7] of 36.3 µM.
